Values of other authors in patent US20070134395A1, “Method of reducing manganese in defatted soy isolate” (priority 2005, published 2007).
Like-named read-outs stand apart in the source and are kept apart here.

Tests used:
[1] = neonate, excess Mn not metabolized
[2] = neonate, from soy-based infant formula
[3] = calcium-deficient rat pups

Row | Compound | share of excess Mn stored in the basal ganglia region [1] | intestinal absorption of Mn (adults) | intestinal absorption of Mn (neonatal, animal models) | Mn absorbed above metabolic need [2] | greater amount of Mn in the cerebral column tissue and fluids [3]
1 | [Mn+2] [Mn, Manganese] | about eight | one percent to about two percent | seventy percent to about eighty percent | approximately 1.1 mg | –
2 | CC(=O)[O-].CC(=O)[O-].[Mg+2] [magnesium acetate] | – | – | – | – | 900%
